Laboratory results reported in patent publication US8268754B2, “Substituted dihydroazole compound and pest control agent” (Nissan Chemical Industries, Ltd., priority 2007, dated 2012).

What was measured:
Format in all cases: in vivo
[1] = tested on: Helicoverpa armigera; assay: Mortality test for Helicoverpa armigera (cabbage leaf dip); details: foliar, 144 h, drug solution 100 ppm, 2 instar larva, after 6 days, 25° C., 12 replications
Experimental: A 10% emulsifiable concentrate of the compound of the present invention (depending on the type of the compound, a 10% wettable powder was subjected to the test) was diluted with water containing a spreader to prepare a drug solution in a concentration of 100 ppm. In this drug solution, a leaf of cabbage was immersed for about 10 seconds and was air-dried and then put into a petri dish. In the petri dish, one 2 instar larva of Helicoverpa armigera per petri dish was released and the petri dish was capped and stored in a thermostatic room of 25° C. The number of killed larvae after 6 days was counted and the mortality was calculated from the same calculation formula as that in Test Example 1. Here, the test was carried out in 12 replications.

[2] = tested on: Planococcus kraunhiae; assay: Mortality test for Planococcus kraunhiae (kidney bean leaf spray); details: 144 h, drug solution 500 ppm, sprayed 2.5 mL per cup, 1 instar larvae, after 6 days, 25° C.
Experimental: (§1) In a styrol cup having an inner diameter of 7 cm, a wet filtration paper was laid, and on the paper, a leaf of kidney bean cut out so as to have the same diameter as the inner diameter of the cup was laid, followed by inoculating the leaf with ten 1 instar larvae of Planococcus kraunhiae per leaf. A 10% emulsifiable concentrate of the compound of the present invention (depending on the type of the compound, a 10% wettable powder was subjected to the test) was diluted with water containing a spreader to prepare a drug solution in a concentration of 500 ppm. The drug solution was sprayed using a rotary spray tower in an amount of 2.5 mL per styrol cup and the cup was capped and stored in a thermostatic room of 25° C. The number of killed larvae after 6 days was counted and the mortality was calculated from the same calculation formula as that in Test Example 1. Here, the test was carried out in two replications.

[3] = tested on: Tetranychus urticae; assay: Mortality test for Tetranychus urticae (kidney bean leaf spray); details: 144 h, drug solution 500 ppm, sprayed 2.5 mL per cup, larvae, after 6 days, 25° C.
Experimental: as §1, with “ten” for “ten 1 instar”, “Tetranychus urticae” for “Planococcus kraunhiae”

[4] = tested on: Aulacophora femoralis; assay: Mortality test for Aulacophora femoralis (cucumber leaf dip); details: foliar, 144 h, drug solution 500 ppm, 2 instar larvae, after 6 days, 25° C.
Experimental: (§2) A 10% emulsifiable concentrate of the compound of the present invention (depending on the type of the compound, a 10% wettable powder was subjected to the test) was diluted with water containing a spreader to prepare a drug solution in a concentration of 500 ppm. In this drug solution, a leaf of cucumber was immersed for about 10 seconds and was air-dried and then put into a petri dish. In the petri dish, five 2 instar larvae of Aulacophora femoralis per petri dish were released and the petri dish was capped and stored in a thermostatic room of 25° C. The number of killed larvae after 6 days was counted and the mortality was calculated from the same calculation formula as that in Test Example 1. Here, the test was carried out in two replications.

[5] = tested on: Frankliniella occidentalis; assay: Mortality test for Frankliniella occidentalis (kidney bean leaf spray); details: 48 h, drug solution 500 ppm, sprayed 2.5 mL per cup, 1 instar larvae, after 2 days, 25° C.
Experimental: as §1, with “Frankliniella occidentalis” for “Planococcus kraunhiae”, “2” for “6”

[6] = tested on: Liriomyza trifolii; assay: Mortality test for Liriomyza trifolii (kidney bean leaf dip); details: foliar, 144 h, drug solution 500 ppm, eggs on kidney bean leaf, killed larvae after 6 days, 25° C.
Experimental: A 10% emulsifiable concentrate of the compound of the present invention (depending on the type of the compound, a 10% wettable powder was subjected to the test) was diluted with water containing a spreader to prepare a drug solution in a concentration of 500 ppm. In this drug solution, a leaf of kidney bean which was cut out to a diameter of 7 cm, on which Liriomyza trifolii laid eggs (10 eggs/leaf) was immersed for about 10 seconds and was air-dried and then laid on a wet filtration paper laid in a styrol cup having an inner diameter of 7 cm. The styrol cup was capped and stored in a thermostatic room of 25° C. The number of killed larvae after 6 days was counted and the mortality was calculated from the same calculation formula as that in Test Example 1. Here, the test was carried out in two replications.

[7] = tested on: Bemisia argentifolii; assay: Mortality test for Bemisia argentifolii (tomato leaf spray); details: 144 h, drug solution 500 ppm, sprayed 2.5 mL per cup, eggs on tomato leaf, killed larvae after 6 days, 25° C.
Experimental: In a styrol cup having an inner diameter of 7 cm, a wet filtration paper was laid, and on the paper, a cut-out leaf of tomato on which Bemisia argentifolii laid eggs (10 eggs/leaf) was laid. A 10% emulsifiable concentrate of the compound of the present invention (depending on the type of the compound, a 10% wettable powder was subjected to the test) was diluted with water containing a spreader to prepare a drug solution in a concentration of 500 ppm. The drug solution was sprayed using a rotary spray tower in an amount of 2.5 mL per styrol cup and the cup was capped and stored in a thermostatic room of 25° C. The number of killed larvae after 6 days was counted and the mortality was calculated from the same calculation formula as that in Test Example 1. Here, the test was carried out in two replications.

[8] = tested on: Plutella xylostella; assay: Mortality test for Plutella xylostella (cabbage leaf dip); details: foliar, 144 h, drug solution 100 ppm (mark *), 2 instar larvae, after 6 days, 25° C.
Experimental: as §2, with “[…]” for “500”, “cabbage” for “cucumber”, “Plutella xylostella” for “Aulacophora femoralis”, “following” for “same”, “formula: Mortality (%)=(number of killed insects/number of released insects)×100.” for “formula as that in Test Example 1.”

O=C(NCc1ccc(C2=NCC(c3cc(Cl)cc(Cl)c3)(C(F)(F)F)C2)cc1Br)C1CC1 (centres unmarked) [No. 1-001, 2-bromo-N-cyclopropylcarbonyl-4-[4-(3,5-dichlorophenyl)-4-trifluoromethyl-4,5-dihydro-3H-pyrrole-2-yl] benzylamine]
≥ 80%: mortality at 100 ppm [1]

FC(F)(F)C1(c2cc(Cl)cc(Cl)c2)CN=C(c2ccc(-n3cncn3)cc2)C1 (centres unmarked) [No. 3-001, 4-(3,5-dichlorophenyl)-2-[4-(1,2,4-triazole-1-yl)phenyl]-4-trifluoromethyl-4,5-dihydro-3H-pyrrole]
≥ 80%: mortality at 500 ppm [2] | mortality at 500 ppm [3] | mortality at 500 ppm [4] | mortality at 500 ppm [5] | mortality at 500 ppm [6] | mortality at 500 ppm [7] | mortality at 100 ppm [8]
